Tests used:
[1] = Spontaneous hydrolysis (chemical stability) in phosphate buffer, spectrophotometric; format: physicochemical; settings: 0.05 M phosphate buffer, pH 7.3, 25 °C; for half-life: t1/2 = 0.693/k'
Method: Testing the stability of new drugs is of great importance for obtaining a good therapeutic profile as well as the safety of their future use. Degradation impurities can reduce drug efficacy and generate undesirable side effects.
The kinetics hydrolysis of the compounds was evaluated at 25 °C in 0.05 M phosphate buffer, pH 7.3, by measuring changes in absorbance spectra during incubation using a T60U spectrophotometer (PG Instruments). The absorbance (At) at characteristic absorption maxima for each compound was measured at 10 min intervals until there was no further decrease in absorbance (Aꝏ). Using these measurements, semilogarithmic plots of the dependence of log(At–Aꝏ) on time were prepared, and k’ values were determined from the slope of these plots according to first order reaction kinetics. Half-conversion times were calculated using equation: t1/2 = 0.693/k’.

[2] = target: T1, human neutrophil elastase (HNE) (Homo sapiens, UniProt P08246); experiment: Human neutrophil elastase inhibition assay (spectrofluorimetric, MeOSuc-AAPV-AMC substrate)
T1 sequence (P08246 30-267): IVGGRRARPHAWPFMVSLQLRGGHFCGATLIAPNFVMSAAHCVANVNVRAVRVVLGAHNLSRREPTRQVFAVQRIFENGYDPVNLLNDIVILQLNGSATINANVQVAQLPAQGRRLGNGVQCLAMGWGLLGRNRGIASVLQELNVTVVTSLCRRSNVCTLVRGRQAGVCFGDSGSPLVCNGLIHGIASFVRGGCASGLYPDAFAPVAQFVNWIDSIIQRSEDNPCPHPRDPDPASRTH
Method: The inhibition of human neutrophil elastase was carried out by the spectrofluorimetric method using N-methoxysuccinyl-Ala-Ala-Pro-Val-7-amido-4-methylcoumarin (MeOSuc-AAPV-AMC) as substrate.

[3] = target: T1, human neutrophil elastase (HNE); experiment: Kinetic analysis of the inhibition of human neutrophil elastase (Lineweaver-Burk, Dixon, secondary plots); format: biochemical; settings: for Inhibition Type: Lineweaver-Burk and Dixon analysis; for Kis (enzyme-substrate-inhibitor dissociation constant): secondary plot of intercept versus inhibitor concentration; for Ki: secondary plot of slope versus inhibitor concentration, read-out: Ki (enzyme-inhibitor dissociation constant)
Method: Next, kinetic analysis of the mechanism of inhibition of human neutrophil elastase by thiazoles 3a–3j was determined using double-reciprocal plots of Lineweaver-Burk plots and Dixon analysis.
The first model is one in which the inhibitor binds better to the free enzyme (competitive mechanism), while the second model is one in which the inhibitor binds better to the enzyme-substrate complex (non-competitive mechanism). Next the secondary plots of slope versus concentration of test compounds were plotted to determine the enzyme-inhibitor dissociation constants Ki, and similarly as was used to determine enzyme-substrate-inhibitor dissociation constants Kis, the secondary plots of intercept versus concentration of tested compounds were plotted.
Kinetic studies were conducted in the presence of different concentrations of substrate (5, 25, 50 and 100 µM) and test compounds (in the range of 0–500 nM). The reaction conditions were the same as in the HNE inhibition assay and the reaction was monitored for 10 min at 25 °C with the same Ex an Em wavelengths. By Lineweaver–Burk plots, kinetic values such as the Michaelis–Menten constants and maximum velocity were determined. Next, two inhibition constants for inhibitor binding with free enzyme or enzyme–substrate complex (Ki and Kis) were obtained by plotting the secondary plot of the slopes of the determined straight lines or vertical intercept (1/Vmax) versus inhibitor concentration.

Compound	k, rate constant of spontaneous hydrolysis [1]	half-life [1]	IC50 [2]	Inhibition Type [3]	Kis (enzyme-substrate-inhibitor dissociation constant) [3]	Ki [3]
CCC1(CC)C(=O)N(c2ccc(-c3csc(Nc4cc(OC)c(OC)c(OC)c4)n3)cc2)C1=O [3c, 3,3-Diethyl-1-(4-(2-(3,4,5-trimethoxyphenylamino)thiazol-4-yl)phenyl)azetidine-2,4-dione]	0.015 min⁻¹	46.2 min	38.2 ± 4.91 nM	mixed type I inhibition	99.50 nM	66.1 nM
CCC1(CC)C(=O)N(c2ccc(-c3csc(Nc4ccc(S(N)(=O)=O)cc4)n3)cc2)C1=O [3e, 4-(4-(4-(3,3-Diethyl-2,4-dioxoazetidin-1-yl)phenyl)thiazol-2-ylamino)benzenesulfo-namide]	0.0175 min⁻¹	39.6 min	35 ± 3.88 nM	mixed type I inhibition	240.00 nM	35.8 nM
